Source: patent US10494341B2, “Compound containing indoleacetic acid core structure and use thereof” (Beijing An Jian Xi Bio-Medical Technology Co., Ltd., priority 2015, dated 2019)

Tests used:
Assay type in all cases: in vivo
gastric mucosa = test: Ulcer induction in rats after gavage (lesions of the gastric mucosa); conditions: for prevalence of ulcer / Ulcer index: gavage three times; for Ulcer index: Dose 90 μM/kg, 12 hours after last gavage; for ulcer at high concentration: gavage, high concentration (90 μM)
COX-1 in gastric mucosa = molecular target: T1, COX-1 in gastric mucosa (Rattus norvegicus, UniProt Q63921); test: COX-1 activity assay, gastric mucosa (thromboxane B2 EIA) after oral dosing of A23187-treated rats; conditions: for reduction of inhibition against COX-1 in gastric mucosal tissue compared with intermediate I: gavage 1, 3, 9 mg/kg/day, intermediate I 0.5 mg/kg, 6 h after dosing; for effect of inhibiting COX-1 in gastric mucosa: gavage, A23187-activated
T1 construct: from tissue; host or cells: rat gastric mucosa (in vivo dosing, tissue homogenate supernatant)
T1 sequence (Q63921 27-602): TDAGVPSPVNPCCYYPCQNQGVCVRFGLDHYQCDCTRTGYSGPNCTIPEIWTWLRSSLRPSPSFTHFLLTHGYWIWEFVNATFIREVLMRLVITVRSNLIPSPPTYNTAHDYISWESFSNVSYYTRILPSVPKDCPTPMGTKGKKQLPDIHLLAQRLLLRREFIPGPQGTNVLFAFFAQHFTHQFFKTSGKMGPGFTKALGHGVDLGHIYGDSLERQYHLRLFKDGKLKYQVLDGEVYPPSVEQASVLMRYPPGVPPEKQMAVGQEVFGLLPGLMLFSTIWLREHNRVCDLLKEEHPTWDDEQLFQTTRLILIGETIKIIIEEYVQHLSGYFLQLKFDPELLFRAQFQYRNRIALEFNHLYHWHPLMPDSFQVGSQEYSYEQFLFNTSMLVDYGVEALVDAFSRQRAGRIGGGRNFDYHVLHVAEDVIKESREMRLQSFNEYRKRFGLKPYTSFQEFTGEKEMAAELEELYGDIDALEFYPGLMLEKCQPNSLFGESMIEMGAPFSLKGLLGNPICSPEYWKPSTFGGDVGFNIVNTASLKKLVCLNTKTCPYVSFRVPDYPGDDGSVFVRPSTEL
Procedure: (1) COX-1 activity assay: 2 hours after intraperitoneal injection of calcium ionophore A23187 (50 mg/kg) to rats, each of the compounds a, b, c, d, e and f was orally administered (gavage) to three rats at a dose of 1, 3 and 9 mg/kg/day, respectively; the intermediate I was orally administered as a control drug to three rats at a dose of 0.5 mg/kg; and additional three rats were only administered with COX-1 activator, the calcium ionophore A23187, and were not administered with the compounds of the present invention. 6 hours after the compound of the present invention was administered, the animals were sacrificed, gastric mucosal tissue and myocardial tissue were collected, homogenized, and subjected to high-speed centrifugation (12,000 rpm), and the supernatant was collected for use. The amount of thromboxane B2 was measured using an enzyme-linked immunosorbent assay (EIA) kit (operated in accordance with the instructions provided by the manufacturer) and converted to COX1 activity.
(§1) The percentage inhibition rate against COX-1 (FIG. 1a—gastric mucosa, FIG. 1b—myocardium) and COX-2 (FIG. 1c) and the IC50 values (Table 1a—gastric mucosa; Table 1b—myocardium) of each tested pharmaceutical compound were calculated from the above data.

mice (C57BL/6J) = test: Survival rate of mice irradiated by γ-rays; conditions: 30th day after 8.75 Gy γ-rays, 16 mice per group; for number of survived mice: intermediates each 3 mg/kg/day gavage; for survival rate: compounds 6 mg/kg/day gavage, amifostine 400 mg/kg/day i.p.
Procedure: In this experiment, 10-week-old male mice (C57BL/6J) weighing about 20 g were used as subjects, and 16 mice were taken as a group. The mice were divided into the following groups: 1. no γ-ray+no drug; 2. γ-ray+no drug; 3. γ-ray+amifostine; 4. γ-ray+intermediate I+intermediate II; 5. γ-ray+compound a; 6. γ-ray+compound b; and 7. γ-ray+compound d. Firstly, each group of mice was administered with a protective agent, and the specific amounts were as follows: compound a, b and d: 6 mg/kg/day (8.1 μM), amifostine: 400 mg/kg/day (1.5 mM), intermediate I+Intermediate II: each 3 mg/kg/day (8.1 μM). Except that amifostine was intraperitoneally injected (30 minutes before irradiation, amifostine was administered), the other protective agents were administered by gavage. 12 hours after administration, systemic irradiation was performed using cobalt 60γ-rays at a dose of 8.75Gy and a dose rate of 0.35 Gy/min for 25 minutes, with the radiation source 80 cm away from the mice. The mice were irradiated once, and continuously administered with drugs once daily for 10 days after irradiation. The number of survival mice was recorded. The percentage obtained by dividing the number of survival mice by the total number of mice in the experimental group (16 mice) is survival rate of mice, and the results are summarized in FIG. 7. […] It is noteworthy that in the experimental group using intermediate I+intermediate II, only one mouse is survived.

COX-2 = molecular target: T2, COX-2 (Rattus norvegicus, UniProt P35355); test: COX-2 activity assay (PGE2 in gastric mucosa, EIA) in LPS-treated rats; conditions: gavage, LPS 2.5 mg/kg-activated
T2 construct: from tissue; host or cells: rat gastric mucosa (LPS-treated rats, in vivo dosing)
T2 sequence (P35355 18-604): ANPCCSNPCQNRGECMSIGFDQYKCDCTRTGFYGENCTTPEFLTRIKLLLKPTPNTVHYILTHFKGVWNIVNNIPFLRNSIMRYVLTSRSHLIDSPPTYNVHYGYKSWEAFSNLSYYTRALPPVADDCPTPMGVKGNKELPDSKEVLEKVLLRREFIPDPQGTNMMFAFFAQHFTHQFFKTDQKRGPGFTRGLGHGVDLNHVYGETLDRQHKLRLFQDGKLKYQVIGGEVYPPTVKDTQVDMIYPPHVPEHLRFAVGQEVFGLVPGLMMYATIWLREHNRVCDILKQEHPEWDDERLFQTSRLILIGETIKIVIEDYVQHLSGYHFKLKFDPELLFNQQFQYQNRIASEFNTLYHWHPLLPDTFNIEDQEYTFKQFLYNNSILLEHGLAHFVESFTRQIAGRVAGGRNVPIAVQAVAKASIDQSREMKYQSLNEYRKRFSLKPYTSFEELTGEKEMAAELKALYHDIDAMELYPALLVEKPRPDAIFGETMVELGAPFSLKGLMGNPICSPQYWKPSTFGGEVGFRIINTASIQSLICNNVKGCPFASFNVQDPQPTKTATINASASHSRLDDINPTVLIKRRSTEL
Procedure: (2) COX-2 activity assay: The assay was similar to that of COX-1, except that LPS was injected intraperitoneally to rats at a dose of 2.5 mg/kg to activate COX-2 in this experiment. After administration, the content of PGE2 in gastric mucosa was measured using an enzyme-linked immunosorbent assay (EIA) kit (operated according to the instructions provided by the manufacturer) and converted to COX2 activity.
as §1

SMILES	prevalence of ulcer (gastric mucosa; 10 μM)	prevalence of ulcer (gastric mucosa; 30 μM)	prevalence of ulcer (gastric mucosa; 90 μM)	Ulcer index (gastric mucosa)	ulcer at high concentration (gastric mucosa)	reduction of inhibition against COX-1 in gastric mucosal tissue compared with intermediate I (COX-1 in gastric mucosa) [fold]	effect of inhibiting COX-1 in gastric mucosa (COX-1 in gastric mucosa)	number of survived mice (mice (C57BL/6J)) [mice]	survival rate (mice (C57BL/6J)) [%]	inhibition against COX-2 (COX-2)
COc1ccc2c(CC(=O)OCCCCCCCCCCc3c(C)c(O)c(OC)c(OC)c3O)c(C)n(C(=O)c3ccc(Cl)cc3)c2c1 [compound b]	0/6	0/6	0/6	0	does not result in ulcer	~700	almost lose the effect of inhibiting COX-1 in gastric mucosa	12	75	significantly enhanced
COC1=C(OC)C(=O)C(CCCCCCCCCCOC(=O)Cc2c(C)n(C(=O)c3ccc(Cl)cc3)c3cc(OC)ccc23)=C(C)C1=O [compound a]	0/6	0/6	1/6	3.3 ± 0.12	only one rat has light ulcer	~700	almost lose the effect of inhibiting COX-1 in gastric mucosa	10	62.5	significantly enhanced
